Measured values reported in publication PMC3866116 (PLoS ONE, 2013).

Legend:
[1] = tested on: HCV subgenomic replicon RNA of genotype 1b strain N (Huh7/Rep-Feo cells); assay: Luciferase assay in HCV subgenomic replicon cell line Huh7/Rep-Feo; format: cell-based, hepatitis C virus
Protocol: The Huh7/Rep-Feo cell line, which harbors the subgenomic replicon RNA composed of HCV IRES, the gene of the fusion protein consisting of neomycin phosphotransferase and firefly luciferase, EMCV IRES and a nonstructural gene of genotype 1b strain N in order in Huh7 cell line, was previously established. Thus, the luciferase activity corresponds to the level of HCV RNA replication. The cell line was maintained in Dulbecco's modified Eagle medium containing 10% fetal calf serum and 0.5 mg/mL G418 and cultured in absence of G418 when they were treated with compounds. The Lunet/Con1LUN Sb #26 cell line, which harbors the subgenomic replicon RNA of the Con1 strain (genotype 1b), was described previously. The OR6 cell line, which harbors the full genomic replicon RNA of the O strain (genotype 1b), was described previously. The HCV replicon cell line derived from the genotype 2a strain JFH1 was described previously. The viral RNA derived from the plasmid pJFH1 was transcribed and introduced into Huh7OK1 cells according to the method of Wakita et al.. The virus was amplified by the several times passages. The cells were infected with the virus at a multiplicity of infection (moi) of 1 and then treated with each compound at 24 h post-infection. The culture supernatants were harvested 72 h post-treatment to estimate the viral RNA as described below.
The replicon cells were seeded at 2×10^4 cells per well in a 48-well plate 24 h before treatment. […] The resulting cells were harvested 72 h post-treatment and lysed with cell culture lysis reagent (Promega, Madison, WI). The luciferase activity of each cell lysate was estimated using a luciferase assay system (Promega). The resulting luminescence was detected by a Luminescencer-JNR AB-2100 (ATTO, Tokyo, Japan).

[2] = Cytotoxicity (MTS assay) in Huh7/Rep-Feo replicon cells; format: cell-based; details: human, Huh7/Rep-Feo cells, MTS, read-out: CC50, fifty percent cytotoxicity concentration based on the reduction in cell viability
Protocol: (§1) The replicon cells were seeded at a density of 1×10^4 cells per well in a 96-well plate and then incubated at 37°C for 24 h. […] Cell viability was measured using a dimethylthiazol carboxymethoxy-phenylsulfophenyl tetrazolium (MTS) assay with a CellTiter 96 aqueous one-solution cell proliferation assay kit (Promega).

[3] = tested on: Huh7/Rep-Feo cells; assay: as above; format: cell-based; details: Huh7/Rep-Feo, 1.3 to 40 µM, 72 h
Protocol: as §1

[4] = tested on: ISRE-promoter activity; assay: ISRE reporter assay in Huh7 OK1 cells; format: cell-based; details: 48 h of treatment, interferon alpha 2b as positive control
[5] = tested on: ISGs (Mx1, MxA, IFIT4, ISG15, OAS1, OAS2, OAS3); assay: RT-PCR of interferon stimulated genes in replicon cells; format: cell-based; details: replicon cell line of genotype 1b, 48 h, listed as CAPE
Protocol: Total RNAs were prepared from cells by using the RNAqueous-4PCR kit (Life Technologies, Carlsbad, CA). Viral RNA were prepared from culture supernatants by using the QIAamp Viral RNA mini kit (QIAGEN, Hilden, Germany). The viral RNA genome was estimated by the qRT-PCR method described previously. RT-PCR was carried out by the method described previously which was slightly modified at the PCR step. The PCR samples were incubated once for 10 min at 95°C for an initial activation step of the AmpliTaq Gold DNA Polymerase (Life Technologies), and then subjected to an amplification step of 30 repeats of the cycle consisting of three segments as follow: 0.5 min at 95°C, 1 min at 55°C and 1 min at 72°C. The primers used in this study were as follows: Mx1: 5′-[…]-3′ and 5′-[…]-3′;

[6] = tested on: HCV NS3; assay: Western blotting of NS3 in Huh7/Rep-Feo cells; format: cell-based, hepatitis C virus; details: Huh7/Rep-Feo cells treated 72 h, dose-dependent
Protocol: Western blotting was carried out by the method described previously. The antibodies to NS3 (clone 8G-2, mousemonoclonal, Abcam, Cambridge, UK), and beta-actin were purchased from Cell Signaling Technology (rabbit polyclonal, Danvers, MA, USA) and were used as the primary antibodies in this study.

SMILES: O=C(/C=C/c1ccc(O)c(O)c1)OCCc1ccccc1 [Compound 1, Caffeic acid phenethyl ester]
- EC50 ([1]; Hepatitis C virus, Huh-7, 72 h, read-out: EC50, fifty percent effective concentration based on the inhibition of HCV replication): 9 ± 0.7 µM
- HCV RNA replication (luciferase activity) ([1]; Huh7/Rep-Feo, various concentrations (compound 1: 1.3 to 40 µM), 72 h, dose-dependent): suppressed
- CC50 at 72 h [2]: 136 ± 1.9 µM
- cell viability [3]: did not affect
- effect on ISRE-promoter activities [4]: no significant effects
- transcriptional expressions of ISGs (Mx1, MxA, IFIT4, ISG15, OAS1, OAS2, OAS3) induced [5]: did not induce
- NS3 protein level [6]: decreased
